According to BindingDB's records for doi:10.1021/acs.jmedchem.8b00605 (Leiden University, 2018):

Target: T1, C-C chemokine receptor type 1 (Homo sapiens, UniProt P32246)
T1 sequence (P32246 whole entry): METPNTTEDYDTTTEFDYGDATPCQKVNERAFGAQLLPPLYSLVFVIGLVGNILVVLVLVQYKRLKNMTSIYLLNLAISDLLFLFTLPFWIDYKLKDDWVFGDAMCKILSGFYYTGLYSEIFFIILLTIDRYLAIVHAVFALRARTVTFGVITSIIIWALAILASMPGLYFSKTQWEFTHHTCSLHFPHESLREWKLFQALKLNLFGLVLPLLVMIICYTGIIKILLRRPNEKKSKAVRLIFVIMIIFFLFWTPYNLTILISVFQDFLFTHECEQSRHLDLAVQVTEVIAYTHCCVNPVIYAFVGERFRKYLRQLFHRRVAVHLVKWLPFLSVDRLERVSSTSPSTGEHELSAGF
Experiment: Displacement of [3H]-CCR2-RA-[R] from human TEV protease site linked CCR1 expressed in human U20S cell membranes co-expressing Gal4-VP16 transcription factor after 120 mins by scintillation spectrometry

For CC(=O)C1=C(O)C(=O)N(c2ccc(Br)cc2F)C1C1CCCCC1 (stereo unspecified), the Ki was 10 nM.
